In one assay the test system is NF-κB. As to the kind of experiment: NF-κB-driven EGFP expression in colon (macroimaging, Western blot, confocal). Type of assay: in vivo. As to conditions: AS252424-treated vs vehicle-treated mice. On the procedure:
Whole tissues were lysed in Laemmli buffer and 20 μg of protein was separated by SDS-PAGE, transferred to nitrocellulose membranes and protein detected using enhanced chemiluminescence reaction (ECL) as described previously. (Lippert et al., 2009). Primary antibodies used were phospho-p70S6K (T389) and p70S6K (Cell Signaling, Danvers, Mass., United States of America), EGFP (Sigma, St. Louis, Mo., United States of America), LC3 I/II (MBL) and Actin.
II10^−/−; NF-κB^EGFP mice were sacrificed; the colon was dissected and immediately imaged using a charge-coupled device camera in a light-tight imaging box with a dual-filtered light source and emission filters specific for EGFP (LT-99D2 Illumatools; Lightools Research, Encinitas, Calif., United States of America). For microimaging, colonic segments were cut open and fixed in 4% paraformaldehyde overnight at 4° C., and then permeabilized in 2% triton overnight at 4° C. The tissues were then immersed in FocusClear (CelExplorer labs) and then stained with DAPI. […]
A segment of the distal colon was lysed in 300 μl Laemmli buffer, homogenized and heated at 95° C. for 5 min. […] Targeted protein was detected using enhanced chemiluminescence reaction (ECL) as described previously (Muhlbauer et al., 2008). […] The density of Western blot bands was quantified using ImageJ and data were normalized to total AKT control. […]

The test system of another assay is C. jejuni. Nature of the assay: Colonic crypt abscess count in C. jejuni infected mice. Format: in vivo. As to conditions: AS252424-treated II10−/− mice vs vehicle. From the text: All animal protocols were approved by the Institutional Animal Care and Use Committee of the University of North Carolina at Chapel Hill (Chapel Hill, N.C., United States of America). Germ-free 8-12 week-old II10^−/−; NF-κBEGFP (129/SvEv; C57BL/6 mixed background), II10^−/− and II10^−/−; Rag2^−/− mice (129/SvEv) were transferred from germ-free isolators and immediately gavaged with a single dose of 10^9 C. jejuni cfu/mouse (strain 81-176 (Korlath et al., 1985)) and sacrificed after up to 14 days as described previously (Sun et al., 2012). Specific pathogen free (SPF) housed Wt, II10^−/− and Pi3kγ^−/− (Sasaki et al., 2000) mice all on a 129/SvEv background were gavaged 10^9 C. jejuni cfu/mouse one day after 7 day treatment with antibiotics cocktail (streptomycin 2 g/L, gentamycin 0.5 g/L, bacteriocin 1 g/L and ciprofloxacin 0.125 g/L) (Sun et al., 2012). […] Histological images were acquired using a DP71 camera and DP Controller 3.1.1.276 (Olympus, Center Valley, Pa., United States of America), and intestinal inflammation was scored on a scale of 0 to 4 as described before (Lippert et al., 2009; Sun et al., 2012). Neutrophils in colonic tissues were identified based on morphological features using H&E stained sections and counted in 5 fields of view/mouse using a microscope. Data were expressed as average counts/mouse.

For `O=C1NC(=O)/C(=C/c2ccc(-c3ccc(F)cc3O)o2)S1` [AS252424], in the assay with NF-κB, the “induction of EGFP expression (NF-κB activity) in the colon” value is listed as “reduced”. Further, in the assay on C. jejuni, the “reduction of C. jejuni-induced crypt abscesses” value is given as 95%.

These data come from patent US20130225629A1, “TARGETING PI3K/MTOR SIGNALLING AND NEUTROPHIL RECRUITMENT FOR TREATMENT OF ENTERITIS” (THE UNIVERSITY OF NORTH CAROLINA AT CHAPEL HILL, priority 2012, published 2013).
